Laboratory results reported in ChEMBL document CHEMBL1121530, “Potential carcinostatics. 4. Synthesis and biological properties of erythro- and threo-beta-fluoroaspartic acid and erythro-beta-fluoroasparagine” (J Med Chem, 1980).
Calls of active or inactive are those of the source. The rule behind the calls is not given here.

Tests used:
L5178Y [1] = test: Tested in vivo for antileukemic activity in the asparagine dependent L5178Y lymphatic leukemia cells in mice up to intraperitoneal doses 100 mg/kg; NA = no antitumor activity; type: functional, organism-based; set-up: dose 100 mg/kg; details: Mus musculus
L5178Y [2] = test: Tested in vivo for antileukemic activity in the asparagine dependent L5178Y lymphatic leukemia cells in mice up to intraperitoneal doses 40 mg/kg; NA = no antitumor activity; type: functional, organism-based; set-up: dose 40 mg/kg; details: Mus musculus

Structure (SMILES) | Activity (L5178Y [1]) | Activity (L5178Y [2])
NC(=O)C(F)C(N)C(=O)O (configuration not stated) | inactive | –
NC(C(=O)O)C(F)C(=O)O (configuration not stated) | – | inactive
